# In patent US6342219B1 (Board of Regents, The University of Texas System, priority 1999, dated 2002):
# How the values were obtained:
# VEGFR2 (KDR/Fc) = assay: Coprecipitation assay, VEGFR2/Fc; format: binding; settings: 40 ng VEGF, 200 ng receptor/Fc
# Method: 200 ng of soluble forms of VEGFR1 (Flt-1/Fc) or VEGFR2 (KDR/Fc, R&D Systems, Minneapolis, Minn.) were added for a total volume of 50 μl and incubated for 2 hrs. The receptor/Fc constructs were precipitated using Protein A-sepharose beads and the resulting precipitate was washed 4 times with binding buffer.
# Reducing sample buffer was added to the pellet and supernatant of each reaction and both were analyzed by 12% SDS-PAGE and transferred to PVDF membranes. […] The soluble receptor/Fc constructs were also detected by using peroxidase-conjugated goat anti-human Fc (Kirkegaard & Perry Laboratories, Inc.)
# The receptor/Fc constructs were precipitated by incubation with Protein A sepharose beads. The precipitate was washed and resuspended in reducing sample buffer and separated by 12% SDS-PAGE and transferred to PVDF.
# β-glucuronidase (GUS) = target: T1, β-glucuronidase (GUS) (Escherichia coli, UniProt P05804); assay: Enzymatic activity of the GUS portion; format: biochemical, E. coli
# T1 construct: made in house; host or cells: E. coli M15 cells
# T1 sequence (P05804 whole entry): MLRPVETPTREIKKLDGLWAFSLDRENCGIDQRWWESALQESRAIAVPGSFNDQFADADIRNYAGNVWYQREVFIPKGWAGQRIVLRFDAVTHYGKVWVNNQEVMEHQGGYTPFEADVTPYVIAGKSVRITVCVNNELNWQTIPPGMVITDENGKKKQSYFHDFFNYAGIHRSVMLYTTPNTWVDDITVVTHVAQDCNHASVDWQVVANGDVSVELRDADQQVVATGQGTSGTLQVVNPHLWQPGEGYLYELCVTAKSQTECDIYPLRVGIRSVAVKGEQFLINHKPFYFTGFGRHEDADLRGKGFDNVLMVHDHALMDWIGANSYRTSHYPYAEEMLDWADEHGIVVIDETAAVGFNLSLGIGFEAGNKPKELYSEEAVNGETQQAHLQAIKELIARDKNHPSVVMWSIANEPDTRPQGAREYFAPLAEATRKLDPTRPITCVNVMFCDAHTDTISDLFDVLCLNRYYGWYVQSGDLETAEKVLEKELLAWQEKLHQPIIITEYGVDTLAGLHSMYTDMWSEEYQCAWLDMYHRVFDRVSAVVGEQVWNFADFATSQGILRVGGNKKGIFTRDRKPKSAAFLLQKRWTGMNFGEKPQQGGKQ
# Excerpt: The 6-His GUS was pure based upon SDS-PAGE, where it ran as a single band of 75 kDa band. On gel filtration columns, the 6-His GUS runs as a tetramer of about 300 kDa.
# The biological activity of each component of the 2C3-GUS conjugate was confirmed.
# [1] = Blood clearance of radioiodinated 2C3-GUS; format: in vivo; settings: mice, intravenous injection, 125I-labelled
# Excerpt: 2C3-GUS was radioiodinated with ^125I to a specific activity of 5×10^6 cpm/μg.
# [2] = system: human NCI-H358 NSCLC tumors; format: in vivo, SCID mice
# [3] = system: cancer patients having progressive disease; settings: patients having progressive disease before treatment; cited from earlier work
# VEGFR1 = VEGFR1 (Homo sapiens, UniProt P17948); settings: read-out: Kd of VEGF binding to VEGFR1; Terman et al., 1994; cited from earlier work
# VEGFR1, sequence (P17948 27-1338): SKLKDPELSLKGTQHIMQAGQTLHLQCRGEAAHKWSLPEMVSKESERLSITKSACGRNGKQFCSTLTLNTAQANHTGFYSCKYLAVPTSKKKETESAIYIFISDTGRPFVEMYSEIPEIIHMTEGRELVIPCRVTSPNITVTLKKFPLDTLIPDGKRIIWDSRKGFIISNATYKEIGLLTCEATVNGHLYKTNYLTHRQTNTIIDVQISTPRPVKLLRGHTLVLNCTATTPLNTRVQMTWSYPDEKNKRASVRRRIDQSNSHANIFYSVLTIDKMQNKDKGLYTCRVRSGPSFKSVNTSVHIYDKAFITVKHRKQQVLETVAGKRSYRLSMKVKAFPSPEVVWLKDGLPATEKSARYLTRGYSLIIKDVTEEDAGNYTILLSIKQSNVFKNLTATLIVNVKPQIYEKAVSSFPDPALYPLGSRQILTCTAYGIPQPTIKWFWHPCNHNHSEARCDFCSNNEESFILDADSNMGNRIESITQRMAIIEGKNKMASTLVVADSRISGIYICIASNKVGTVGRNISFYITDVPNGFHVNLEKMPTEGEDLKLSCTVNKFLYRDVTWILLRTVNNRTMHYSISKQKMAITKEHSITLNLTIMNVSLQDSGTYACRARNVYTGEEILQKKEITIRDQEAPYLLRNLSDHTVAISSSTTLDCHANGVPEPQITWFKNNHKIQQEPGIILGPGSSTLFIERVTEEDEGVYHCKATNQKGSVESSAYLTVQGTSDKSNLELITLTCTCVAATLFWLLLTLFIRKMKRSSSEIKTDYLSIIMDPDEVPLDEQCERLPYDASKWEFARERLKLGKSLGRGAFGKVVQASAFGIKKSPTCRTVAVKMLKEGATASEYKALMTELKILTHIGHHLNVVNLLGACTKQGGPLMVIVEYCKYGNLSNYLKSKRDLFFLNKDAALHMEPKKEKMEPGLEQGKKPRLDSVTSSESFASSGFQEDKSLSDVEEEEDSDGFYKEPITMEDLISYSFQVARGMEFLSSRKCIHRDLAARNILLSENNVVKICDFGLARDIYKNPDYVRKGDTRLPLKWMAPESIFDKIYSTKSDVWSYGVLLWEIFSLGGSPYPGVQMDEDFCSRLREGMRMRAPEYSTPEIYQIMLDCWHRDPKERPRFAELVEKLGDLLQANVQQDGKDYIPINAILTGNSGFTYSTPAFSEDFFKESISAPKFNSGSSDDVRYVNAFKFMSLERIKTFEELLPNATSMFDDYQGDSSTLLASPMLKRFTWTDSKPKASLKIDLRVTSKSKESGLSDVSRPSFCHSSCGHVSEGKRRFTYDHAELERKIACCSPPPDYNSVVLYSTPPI
compound,measurement,setting,value
2C3 F(ab′)2: F(ab′)2 of 2C3,Blocking of VEGF binding to VEGFR2/Fc in solution,VEGFR2 (KDR/Fc),blocked
2C3-GUS [Clone 2C3-GUS],Enzymatic activity of the GUS portion,β-glucuronidase (GUS),retained enzymatic activity
same,t½ α,[1],about 6 hours
same,t½ β,[1],about 25 hours
same,Localization after i.v. injection,[2]; SCID mice bearing subcutaneous NCI-H358,specifically localized to tumor vasculature and surrounding tumor stroma
same,Staining of normal tissues,"[2]; mouse, in vivo",unstained
same,Time of maximal localization after injection,"[2]; mouse, in vivo, sc",24 to 48 h
"NC(=O)c1nnn(Cc2cc(Cl)c(C(=O)c3ccc(Cl)cc3)c(Cl)c2)c1N [CAI, carboxyamidotriazole]","Disease stabilization, share of cancer patients",[3],49%
VEGF,Kd,VEGFR1,0.015 to 0.1 nM
